Reference: US20100119516A1, “ANTI-TGF-BETA RECEPTOR II ANTIBODIES” (priority 2008, published 2010)

Tested on: EMT6 mouse tumor cells
Assay: EMT6 s.c. tumor model (monotherapy and combination with cyclophosphamide)
Type: in vivo, mice
Conditions: i.p. 3 times each week, mAb 40 mg/kg, CTX 80 mg/kg
From the text: Athymic nude mice (Charles River Laboratories, Wilmington, Mass.), Balb/c mice, or C57B6 mice (Charles River Laboratories, Wilmington, Mass.) may be used for inoculation with mouse or human carcinoma cells. For treatment of established tumors in subcutaneous models, tumors may be allowed to grow to approximately 200 mm^3 in size, and then mice may be randomized into groups of 12-15 animals per group. In lung metastasis models, mice may be injected intravenously with tumor cells via tail vein. Animals may receive i.p. administered anti-TGFβRII mAb at a dose of 10-40 mg/kg three times each week. Mice in control groups may receive an equal volume of saline or normal IgG solution. […] Tumors may be measured twice each week with calipers. Tumor volumes may be calculated using the formula [π/6 (w1×w2×2)], where “w1” represents the largest tumor diameter and “w2” represents the smallest tumor diameter. […]
The inhibitory activity of mAb MT1 against immunosuppressive cells, i.e. CD4/CD25/Foxp3/TGFβRII+Treg cells and Gr-1+/CD11b+/TGFβRII+ myeloid cells is evaluated in an EMT6 s.c. tumor model. The inhibitory effect of anti-TGFβRII antibody on Treg and Gr-1+/CD11b+ myeloid cell population in tumor-bearing mice may be determined by FACS analysis on the alteration of Gr-1+/CD11b+ population and CD4/CD25/Foxp3/TGFβRII+ and Gr-1+/CD11b+/TGFβRII+ population after treatment of mice with mAb MT1. […]

`O=P1(N(CCCl)CCCl)NCCCO1` (centres unmarked) [CTX, Cyclophosphamide] was tested, and the “inhibition of primary tumor growth” value was 62% and the “inhibition of spontaneous pulmonary metastasis” value was 96%.
